Values of other authors as cited in patent US4399125A, “Novel antagonists of the antidiuretic action of arginine vasopressin” (priority 1981, dated 1983).

Key:
[1] = system: oxytocic response to oxytocin; conditions: literature; cited from earlier work
[2] = system: antidiuretic activity (urine flow); conditions: prior art statement; cited from earlier work
vasoconstrictive action = conditions: compared with natural vasopressins; cited from earlier work
[3] = system: vasopressor response to AVP; conditions: prior art statement; cited from earlier work
[4] = system: antidiuretic response to ADH (arginine vasopressin); conditions: earlier work of Manning et al. (in press); cited from earlier work

1-deamino-oxytocin [dOT]
oxytocic activity (agonist / antagonist, in words) [1]: highly potent oxytocic agonist

2-phenylalanine-8-ornithine vasopressin
antidiuretic potency / activity (in words) [2]: low antidiuretic activity | vasoconstrictive action (vasoconstrictive action): equal to that of natural vasopressins

[1-(β-Mercapto-β,β-cyclopentamethylenepropionic acid] arginine vasopressin
vasopressor antagonism (in words) [3]: potent vasopressor antagonists | antidiuretic potency / activity (in words) [2]: very low antidiuretic potency

[1-(β-mercapto-β,β-cyclopentamethylenepropionic acid), 2-D-tyrosine, 4-valine, 8-D-arginine] vasopressin [d(CH2)5 D-Tyr-VDAVP]
anti-antidiuretic activity (in words) [4]: anti-antidiuretics

[1-(β-mercapto-β,β-cyclopentamethylenepropionic acid), 4-valine, 8-D-arginine] vasopressin
vasopressor antagonism (in words) [3]: potent antagonists of the vasopressor response to AVP | antidiuretic potency / activity (in words) [2]: weak antidiuretic activity

[1-(β-mercapto-β,β-cyclopentamethylenepropionic acid)] oxytocin [d(CH2)5 OT]
oxytocic activity (agonist / antagonist, in words) [1]: potent antagonists of the oxytocic response to oxytocin

[1-deaminopenicillamine, 4-valine, 8-D-arginine]vasopressin
vasopressor antagonism (in words) [3]: potent antagonists of the vasopressor response to AVP | antidiuretic potency / activity (in words) [2]: weak antidiuretic activity

[1-deaminopenicillamine] oxytocin [dPOT]
oxytocic activity (agonist / antagonist, in words) [1]: potent antagonists of the oxytocic response to oxytocin
